Patent US8791079B2, “Methods for treating heart failure by inhibiting the mitochondrial sodium-calcium exchanger (mNCE)” (priority 2009, dated 2014)
Where “and” joins values, the source holds several entries; their conditions need not be identical. Equal values may be shown once. Marks after values point to notes of the source that are not given here.

Assays:
[1] = tested on: Guinea pig ventricular myocytes; test: Mitochondrial Ca2+ ([Ca2+]m, rhod-2) in patch-clamped myocytes; format: cell-based
Method: (§1) Guinea pig ventricular myocytes were isolated by enzymatic digestion as described previously. O'Rourke, B., et al., “Oscillations of membrane current and excitability driven by metabolic oscillations in heart cells,” Science, 265(5174):962-966 (Aug. 12, 1994). Cells were suspended in Dulbecco's Modification of Eagle's Medium (DMEM) supplemented with 5% fetal bovine serum, 1% penicillin/streptomycin, and 15 mmol/L HEPES, pH 7.4, and stored in a 5% CO2 incubator at 37° C.
Cytosolic Ca^2+ ([Ca^2+]c), mitochondrial Ca^2+ ([Ca^2+]m), and [Na^+]i were measured with the fluorescent indicators indo-1, rhod-2, and sodium-binding benzofuran isophthalate (SBFI), respectively (Invitrogen, Carlsbad, Calif.), and mitochondrial NADH was measured as the cellular autofluorescence with 360-nm excitation/450-nm emission. Indo-1 was loaded into cell with the membrane permeable form, indo-1 AM. To minimize indo-1 loading into the mitochondrial compartment, cells were briefly incubated with indo-1 AM at room temperature for 20 min. Rhod-2 and SBFI experiments were carried out as previously described. Maack et al., supra, Liu and O'Rourke, supra. […]
Isolated ventricular myocytes were loaded into a heated field-stimulation chamber (Warner Instruments, Hamden, Conn.) at 37° C. on the stage of a fluorescence microscope (Nikon Eclipse TE300, Nikon Instruments, Inc., Melville, N.Y.). […]

[2] = tested on: Guinea pig ventricular myocytes; test: Action potentials and delayed afterdepolarizations in current-clamped myocytes; format: cell-based; details: for incidence of DAD-triggered APs: 100-nM isoproterenol, 1-μM ouabain without or with 1-μM CGP-37157, 1 Hz, last minute of stimulation
Method: as §1
(§2) Isolated ventricular myocytes were loaded into a heated field-stimulation chamber (Warner Instruments, Hamden, Conn.) at 37° C. on the stage of a fluorescence microscope (Nikon Eclipse TE300, Nikon Instruments, Inc., Melville, N.Y.). The myocytes were first superfused with control Tyrode's solution containing: NaCl (130 mmol/L), KCl (5 mmol/L), MgCl2 (1 mmol/L), Na-HEPES (10 mmol/L), CaCl2 (2 mmol/L), glucose (10 mmol/L), at pH 7.4. After one minute of recording in the absence of electrical stimulation in control buffer, 1-μM ouabain and 100-nM isoproterenol, with or without 1 μM CGP-37157, were added to buffer. After another five minutes of recording, myocytes were field-stimulated at 1 Hz for three minutes followed by a two-minute recording after returning to the resting state. To record [Ca^2+]m and action potentials, myocytes were whole-cell patch-clamped at 37° C. Tyrode's solution was used as external solution and the internal solution contained: NaCl (10 mmol/L), KCl (19 mmol/L), K-glutamate (125 mmol/L), MgCl2 (0.5 mmol/L), HEPES (10 mmol/L), MgATP (5 mmol/L), at pH 7.25.
In current-clamped myocytes, electrically-stimulated action potentials (APs) were recorded at 1 Hz and the probability of observing one or more delayed afterdepolarization-(DAD) triggered action potentials was determined during the last minute of stimulation.

[3] = tested on: Guinea pig ventricular myocytes; test: Cytosolic Ca2+ ([Ca2+]c, indo-1) cycling in isolated myocytes; format: cell-based; details: ouabain without or with CGP-37157; for diastolic [Ca2+]c before stimulation / diastolic [Ca2+]c after three minutes of stimulation / increase of amplitude of [Ca2+]c transient (Δ[Ca2+]c) compared to control: 100-nM isoproterenol; for diastolic [Ca2+]c before stimulation: before 1-Hz stimulation; for diastolic [Ca2+]c after three minutes of stimulation: end of 1-Hz stimulation; for increase of amplitude of [Ca2+]c transient (Δ[Ca2+]c) compared to control: midpoint of 1-Hz stimulation, control = isoproterenol only; for spontaneous Ca2+ oscillations / discordant contractions: prolonged stimulation
Method: as §1
Cytosolic Ca^2+ ([Ca^2+]c), mitochondrial Ca^2+ ([Ca^2+]m), and [Na^+]i were measured with the fluorescent indicators indo-1, rhod-2, and sodium-binding benzofuran isophthalate (SBFI), respectively (Invitrogen, Carlsbad, Calif.), and mitochondrial NADH was measured as the cellular autofluorescence with 360-nm excitation/450-nm emission. Indo-1 was loaded into cell with the membrane permeable form, indo-1 AM. To minimize indo-1 loading into the mitochondrial compartment, cells were briefly incubated with indo-1 AM at room temperature for 20 min. Rhod-2 and SBFI experiments were carried out as previously described. Maack et al., supra, Liu and O'Rourke, supra. Cytoplasmic rhod-2 was eliminated by using rhod-2-free patch pipettes. Maack et al., supra, Liu and O'Rourke, supra. The ROS-sensitive fluorescent probe 5-(−6)-chloromethyl-2′,7′-dichlorohydrofluorescein diacetate (CM-H2DCFDA) was used to monitor the extent of oxidative stress, as previously described. Aon, M. A., et al., “Synchronized whole cell oscillations in mitochondrial metabolism triggered by a local release of reactive oxygen species in cardiac myocytes,” J. Biol. Chem., 278(45):44735-44744 (Nov. 7, 2003). This probe is primarily localized in the mitochondrial matrix, see Aon et al., supra, and is oxidized by hydrogen peroxide to yield fluorescent CM-DCF, thus indirectly reporting mitochondrial superoxide production.
as §2

Guinea pig hearts = test: Arrhythmia score and ventricular fibrillation in isolated perfused hearts; details: without or with CGP-37157; for Incidence of VF: hearts with VF / hearts, ouabain treatment and isoproterenol stimulation; for arrhythmia score: ten-minute ouabain treatment (0.25 μM), modified Score A, 0-4
From the text: Guinea pig hearts were quickly excised under anesthesia and mounted on a modified Langendorff apparatus attached to a Powerlab system (AD Instruments, Colorado Springs, Colo.). Hearts were perfused with gassed (95/5% O2/CO2) control buffer containing: 118-mM NaCl, 24-mM NaHCO3, 1.2-mM KH2PO4, 4.75-mM KCl, 1.2-mM MgSO4, 2.0-mM CaCl2, and 10-mM glucose. A buffer-filled latex balloon (Harvard apparatus) was inserted through the mitral valve into the left ventricle. Hearts were suspended in a buffer-filled heating chamber maintained at 37° C. and two electrodes were placed into the bath for volume-conducted electrocardiogram recordings. Heart rate, left ventricular developed pressure (LVDP), maximal rates of contraction and relaxation (±dP/dt), oxygen consumption, and electrocardiograms (ECG) were recorded on a computer. After a ten-minute equilibration period, hearts were subjected to the following protocol: ten-minute baseline recording while the heart was perfused with control buffer, ten-minute recording while 0.25-μM ouabain with or without 1 μM CGP-37157, and sixty-minute recording while hearts were stimulated with 25-nM isoproterenol. The measurements of hemodynamic parameters were determined by taking the average during the last two minutes before ouabain treatment (baseline) and for two minutes during the maximal effect on LVDP of either ouabain or isoproterenol.
Arrhythmias were characterized in accordance with the Lambeth Conventions, see Walker, M. J., et al., Cardiovasc. Res., 22(7):447-455 (July 1988), and scores were tabulated for the ten-minute period of ouabain treatment using modified Score A as described by Curtis, M. J. and Walker, M. J., “Quantification of arrhythmias using scoring systems: an examination of seven scores in an in vivo model of regional myocardial ischaemia,” Cardiovasc. Res., 22(9):656-665 (September 1988). Briefly, each heart was given a score based on the following criteria: 0: <50 ventricular premature beats; 1: 50-499 ventricular premature beats; 2: >500 ventricular premature beats and/or one episode of spontaneously reverting ventricular tachycardia or ventricular fibrillation; 3: more than one episode of spontaneously reverting ventricular tachycardia or fibrillation (<2 min); 4: >2 min of ventricular tachycardia or fibrillation.

Structure (SMILES)	[Ca2+]m accumulation ([1]; 1 μM CGP-37157 with 1-μM ouabain + 100-nM isoproterenol, 1-Hz stimulation)	incidence of DAD-triggered APs [2]	amplitude of DADs ([2]; ouabain plus CGP-37157 versus ouabain alone)	diastolic [Ca2+]c before stimulation [3] [nM]	diastolic [Ca2+]c after three minutes of stimulation [3] [nM]	increase of amplitude of [Ca2+]c transient (Δ[Ca2+]c) compared to control [3] [%]	spontaneous Ca2+ oscillations / discordant contractions [3]	Incidence of VF (Guinea pig hearts)	Incidence of VF (Guinea pig hearts; listed as CGP)	arrhythmia score (Guinea pig hearts)	increase of diastolic [Ca2+]m during 1-Hz stimulation ([1]; 1-μM ouabain + 100-nM isoproterenol) [%]
O=C1CSC(c2ccccc2Cl)c2cc(Cl)ccc2N1 (stereo not drawn) [CGP-37157, 7-chloro-5-(2-chlorophenyl)-1,5-dihydro-4,1-benzothiazepin-2(3H)-one]	significantly enhanced [Ca^2+]m accumulation	not significantly different from controls	smaller amplitude than in ouabain alone	99 ± 14	370 ± 60	74	significantly reduced the incidence of discordant contractions	2 out of 7	2/7*	1.1±0.4	
C[C@@H]1O[C@@H](O[C@H]2C[C@@H](O)[C@]3(CO)[C@H]4[C@H](O)C[C@]5(C)[C@@H](C6=CC(=O)OC6)CC[C@]5(O)[C@@H]4CC[C@]3(O)C2)[C@H](O)[C@H](O)[C@H]1O [ouabain, 1β,3β,5β,11α,14,19-Hexahydroxycard-20(22)-enolide 3-(6-deoxy-α-L-mannopyranoside, reference compound]		significant increase in the incidence of DAD-triggered APs		123 ± 9	750 ± 142	112	developed spontaneous Ca^2+ oscillations, extrasystolic contractions, and eventual hypercontracture	7 out of 8 and 7/8		2.7±0.5	< 10
